# Experimental data taken from article PMC11760959, “Broad substrate scope C-C oxidation in cyclodipeptides catalysed by a flavin-dependent filament” (Nature Communications, 2025).
# Columns and labels:
# NdasCDO = test system: T1, NdasCDO; assay: UV absorbance, initial rates; format: biochemical, Nocardiopsis dassonvillei; settings: 50 mM Tris pH 9.0, 200 mM NaCl, 30 °C; O2 as oxidant
# T1 construct: gene Ndas1146; both subunits co-expressed from pRSFDuet-1 in E. coli BL21(DE3), nickel HisTrap purified; A monomer 22 kDa, B monomer 11 kDa; filament of alternating A and B homodimers (A2B2 repeat)
# [1] = target: NdasCDO subunit A (NdasCDO-A), cyclodipeptide oxidase subunit A from Nocardiopsis dassonvillei (Nocardiopsis dassonvillei) (UniProt D7B1W6); assay: cryo-EM structure; helical reconstruction of NdasCDO filaments; purified complex dialysed against 20 mM Tris pH 9, 200 mM NaCl, 5 mM DTT, 4 uM on the grid; local refinement with a mask over two dimers of subunit A and two dimers of subunit B
# [2] = target: NdasCDO subunit B (NdasCDO-B), cyclodipeptide oxidase subunit B from Nocardiopsis dassonvillei (Nocardiopsis dassonvillei) (UniProt D7B1W7); assay: as above
Km (NdasCDO),Compound,also measured
4200 µM,O=C1CNC(=O)[C@H](Cc2ccccc2)N1 [cFG],–
80 µM,O=C1N[C@@H](Cc2c[nH]c3ccccc23)C(=O)N[C@H]1Cc1ccccc1 [cWF],–
800 µM,O=C1N[C@@H](Cc2c[nH]c3ccccc23)C(=O)N[C@H]1CO [cWS],–
–,"NdasCDO subunit A (NdasCDO-A), cyclodipeptide oxidase subunit A from Nocardiopsis dassonvillei (from UniProt D7B1W6 2-157) (enzyme)",stoichiometry N [1]: 2
–,"NdasCDO subunit B (NdasCDO-B), cyclodipeptide oxidase subunit B from Nocardiopsis dassonvillei (from UniProt D7B1W7 1-105) (enzyme)",stoichiometry N [2]: 2
